# In patent publication US4546098A, “Estrogen synthesis inhibitors” (The Rockefeller University, priority 1984, dated 1985):
# Biological target: T1, aromatase (Homo sapiens, UniProt P11511)
# T1 construct: incubated with 5 ml of a placental microsomes; from tissue; host or cells: placental microsomes
# T1 sequence (P11511 1-503): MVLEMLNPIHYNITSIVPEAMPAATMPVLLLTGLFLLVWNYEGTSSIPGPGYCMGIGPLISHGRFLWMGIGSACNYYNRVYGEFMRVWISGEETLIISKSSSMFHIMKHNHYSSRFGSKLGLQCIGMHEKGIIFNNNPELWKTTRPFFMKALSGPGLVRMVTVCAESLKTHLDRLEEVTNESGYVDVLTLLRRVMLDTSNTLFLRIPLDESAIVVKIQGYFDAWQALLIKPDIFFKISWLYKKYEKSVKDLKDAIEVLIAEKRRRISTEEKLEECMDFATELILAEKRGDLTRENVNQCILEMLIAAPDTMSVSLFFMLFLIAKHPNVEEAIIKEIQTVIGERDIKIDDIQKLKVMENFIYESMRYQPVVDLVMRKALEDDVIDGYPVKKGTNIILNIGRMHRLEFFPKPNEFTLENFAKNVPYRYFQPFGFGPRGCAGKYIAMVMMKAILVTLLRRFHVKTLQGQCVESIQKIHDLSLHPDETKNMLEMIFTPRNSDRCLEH
# Assay: Inhibition of formic acid formation from [19,19,19-3H]androst-4-ene-3,17-dione by placental microsomes
# Type: biochemical
# Conditions: placental microsomes 1 mg/ml (5 ml), pH 7.2, 37° C., 30 minutes; inhibitor 4 n mole, androstenedione 4 n mole; NADPH
# Procedure: A mixture of [19,19,19-^3 H]androst-4-ene-3,17-dione diluted with cold androstenedione (2.8×10^6 dpm, 4 n mole) and an inhibitor (4 n mole) in ethanol (50 μl) was incubated with 5 ml of a placental microsomes (1 mg/ml of 0.05M tris-HCl, pH 7.2) in the presence of NADPH (5 mg), glucose-6-phosphate (2.5 mg), and glucose-6-phosphate dehydrogenase (3.1 units). The incubations were carried out at 37° C. for 30 minutes in air. A control incubation was carried out as above except that the inhibitor was excluded. The incubation mixture (1 ml) was mixed with 1M phosphoric acid (1 ml), flash frozen and lyophilized. Radioactivity in 0.5 ml of the distilled component was measured (A). And 1.2 ml of the distilled component was mixed with 0.3 ml of 1N sodium hydroxide, flash frozen, and lyophilized. Radioactivity in 0.5 ml of the distilled water was measured (B).
row,Structure (SMILES),% Inhibition of formic acid formation
1,"C=C1C=C2CC[C@@H]3[C@H](CC[C@]4(C)C(=O)CC[C@@H]34)[C@@]2(CO)CC1 [Cmpd. 9, 3-methylene-androst-4-ene-19-ol-17-one]",90%
2,"C=C1C=C2CC[C@@H]3[C@H](CC[C@]4(C)C(=O)CC[C@@H]34)[C@@]2(C=O)CC1 [Cmpd. 53, 3-Methylene-androst-4-ene-17,19-dione]",70%
3,"C=C1C=C2CC[C@@H]3[C@H](CC[C@]4(C)[C@@H](O)CC[C@@H]34)[C@@]2(CO)CC1 [Cmpd 5, 3-methylene-androst-4-ene-17β,19-diol]",55%
4,"C=C1C=C2CC[C@@H]3[C@H](CC[C@]4(C)C(=O)CC[C@@H]34)[C@@]2(C)CC1 [Cmpd. 3, 3-methylene-androst-4-ene-17-one]",86%
5,"C=C1C=C2CC[C@H]3[C@@H]4CC[C@H](O)[C@@]4(C)CC[C@@H]3[C@@]2(C)CC1 [Cmpd. 1, 3-methylene-androst-4-ene-17β-ol]",43%
